Measurements: ChEMBL document CHEMBL3988442, “University of Dundee, Small-Polar-MMV Screening Library” (2021)
Values joined by “and” are separate entries in the source; they are usually repeats but may differ in a detail not shown here. Equal entries are not always repeated.

Assays:
[1] = In vitro enzyme assay to detect hydrolysis of chlorophenol red-beta-D-[…] directly proportional to the number of Toxoplasma stably expressing beta-galactosidase; assay type: functional, organism-based, Toxoplasma gondii; conditions: for IC50: Toxoplasma gondii
[2] = microbe, parasite or virus in culture; conditions: Mycobacterium tuberculosis, 72 h, read-out: pIC50 (converted)
[3] = microbe, parasite or virus in culture; conditions: Mycobacterium tuberculosis, 96 h, read-out: pIC50 (converted)
[4] = target: ClpP1P2 (Mycobacterium tuberculosis (strain ATCC 25618 / H37Rv), UniProt P9WPC3+P9WPC5); assay: in vitro assay to detect presence of AMC directly proportional to the activity of ClpP1P2. GHDDI collaboration.; assay type: functional
[5] = target: Tryptophan--tRNA ligase (Mycobacterium tuberculosis (strain ATCC 25618 / H37Rv), UniProt P9WFT3); assay: Biochemical assay for Mt-TrpRS; assay type: functional
[6] = tested on: Schistosoma mansoni; assay: High throughput screening of compounds against Schistosoma mansoni motility; assay type: functional; parameters: dose or concentration left out as unconfirmed
[7] = tested on: Plasmodium falciparum; assay: Calibr Malaria Delayed Death Assay SOP; assay type: functional, organism-based; conditions: for IC50: Plasmodium falciparum

SMILES | IC50 [1] | IC50 [2] | IC50 [3] | other results
Nc1n[nH]c(SCc2ccc3c(c2)OCCO3)n1 | > 50.1 µM | > 501 µM | > 501 µM | 
Cc1cc(C)n(-c2nc(NCCCO)c3c4c(sc3n2)CCCC4)n1 |  | 45.4 µM | 41.8 µM | pIC50 [1]: 5.989 and 5.533
NCC(O)c1ccc(-c2ccccc2)cc1 (centres undefined) | > 25.1 µM | 104 µM | 97.4 µM | 
CNc1oc(-c2ccc(S(=O)(=O)N(C)C)o2)nc1C#N | > 50.1 µM |  |  | IC50 [4]: > 100 µM
Cc1cc(NC(=O)C(C)C)n(-c2nc(C)c(C)c(=O)[nH]2)n1 | 1.51 µM | 4.11 µM | 9.46 µM | pIC50 [1]: 5.713
Cc1cc(C(=O)N2CCN(c3nc4c(C(C)C)cccc4s3)CC2)on1 | > 25.1 µM | 21.3 µM | 38.5 µM | 
CO[C@H]1CC[C@H]2[C@H]1OCCN2C(=O)C1=CCCC1 |  |  |  | IC50 [5]: > 195 µM
Cn1nc(C#N)c2c1CN(C(=O)c1ccco1)CCC2 |  |  |  | IC50 [5]: > 195 µM
COCC1CC2(CCN(C(=O)c3ccc(F)c(Cl)c3)CC2)CO1 (centres undefined) |  |  |  | IC50 [5]: > 195 µM
O=C(c1cnccn1)N1CCC2(CCCN(Cc3ccoc3)C2)C1 (centres undefined) |  |  |  | IC50 [5]: > 195 µM
O=S(=O)(NCC1(O)CCOc2ccccc21)c1ccc(Br)s1 (centres undefined) | 7.49 µM |  |  | Percent Effect [6]: -11.19%
CCn1cc(CN(C)S(=O)(=O)c2ccc(C(C)C)cc2)cn1 | > 50.1 µM | 46.8 µM | 48.5 µM | 
C=C/C=c1\c(=C/C)oc2c(NCc3ccccc3)nc(C)nc12 | 37.2 µM | 20.6 µM | 12.1 µM | 
C=C/C=c1\c(=C/C)oc2c(NCc3ccccc3)nc(CC)nc12 | 37.5 µM | 22 µM | 19.1 µM | 
CCCn1c(N2CCCC(C)C2)nc2c(C)nn(C)c2c1=O (centres undefined) | 22.2 µM |  | > 50.1 µM | pIC50 [1]: 4.506
CCNc1ncc2c(n1)CN(c1ccc(CC)cc1)C2=O | > 50.1 µM |  | > 50.1 µM | 
CCCc1nc(NCCc2ccccc2)c2c(n1)c(C)nn2CC | 9.84 µM | 48.8 µM | 38.5 µM | pIC50 [1]: 4.958
CCn1nc(C)c2nc(C(C)C)nc(NCC(C)C)c21 | 25.4 µM | 47.1 µM | 49.2 µM | 
CCCNc1cc(-c2c[nH]nc2C2CCN(C(=O)C3CCC3)C2)ccn1 (centres undefined) | 0.368 µM |  |  | pIC50 [7]: 6.573; IC50 [7]: 0.237 µM
CC(C)Nc1cc(-c2c[nH]nc2C2CCN(C(=O)C3CC3)C2)ccn1 (centres undefined) | 0.423 µM |  |  | pIC50 [7]: 6.541; IC50 [7]: 0.269 µM
CC(C)CNc1cc(-c2c[nH]nc2C2CCN(C(=O)C3CC3)C2)ccn1 (centres undefined) | 0.274 µM |  |  | pIC50 [7]: 6.615; IC50 [7]: 0.233 µM

SMILES | IC50 [1] | IC50 [2] | IC50 [3] | other results
CC(C)Nc1cc(-c2c[nH]nc2C2CCN(C(=O)C3CCC3)C2)ccn1 (centres undefined) | 0.526 µM |  |  | pIC50 [7]: 6.647; IC50 [7]: 0.209 µM
CC(C)(C)c1cn2c(n1)C(CNCc1ccccn1)CCC2 (centres undefined) | 2.04 µM |  |  | pIC50 [7]: 6.014; IC50 [7]: 0.881 µM
CC(C)c1ccc(C(CN)N2CCc3sccc3C2)cc1 (centres undefined) | 13.4 µM | 20.4 µM | 24.8 µM | pIC50 [1]: 5.076
NC(CC1CCCC1)c1ccc(Oc2ccccc2)cc1 (centres undefined) | 5.29 µM | 27.4 µM | 24.2 µM | 
Brc1ccc(NCc2ccc(Cn3ccnc3)cc2)nc1 | 29.6 µM | 3.73 µM | 4.63 µM | 
O=C(CN1CCCC(c2ccn[nH]2)C1)Nc1nc2c(s1)CCC2 (centres undefined) | 0.766 µM |  |  | pIC50 [7]: 6.713; IC50 [7]: 0.216 µM
Cc1cc(C2CCCN(CC(=O)Nc3nc4c(s3)CCC4)C2)n[nH]1 (centres undefined) | 0.781 µM | 37.8 µM | 47.2 µM | pIC50 [7]: 6.771; IC50 [7]: 0.185 µM
CCCn1ncc(-c2ccnc(NC3CC(C)(C)NC(C)(C)C3)n2)c1C | 9.87 µM |  |  | pIC50 [7]: 6.559; IC50 [7]: 0.23 µM
CCc1nccn1CCNC1CCN(c2nc3ccc(Cl)cc3s2)CC1 | 8.99 µM | 34 µM | 18.4 µM | 
Fc1cccc(-c2cccc(N3CCC(NC4CCCOC4)CC3)c2)c1 (centres undefined) | 26.2 µM | 27.4 µM | 30.8 µM | 
Clc1cccc(-c2cccc(N3CCC(NC4CCOCC4)CC3)c2)c1 | 14.4 µM | 29.7 µM | 34.9 µM | 
COc1ccc(-c2ccccc2CCN)c(OC)c1OC | 3.52 µM | 43.4 µM | 25.1 µM | pIC50 [7]: 6.053; IC50 [7]: 0.762 µM
NCCC(=O)Nc1ccc(-c2ccccc2)cc1 |  |  |  | IC50 [5]: > 195 µM
CCNCc1ccc(OCc2ccc3c(c2)OCCO3)cc1.Cl | 8.2 µM |  |  | pIC50 [1]: 4.872; IC50 [4]: > 100 µM
CCOC(=O)C1(Cc2ccccc2-c2ccccc2OC)CCNCC1.Cl | 13.2 µM |  |  | pIC50 [7]: 6.391; IC50 [7]: 0.369 µM
Cc1ccc(C(CCNCCCN(C)C)C2CCOC(C)(C)C2)cc1.O=C(O)C(=O)O (centres undefined) | 5.38 µM |  |  | pIC50 [7]: 6.22; IC50 [7]: 0.659 µM; pIC50 [1]: 5.301
Cc1noc([C@@H]2C[C@H]3CN(CC4CCOCC4)C[C@H]3O2)n1 |  |  |  | IC50 [5]: > 195 µM
COCC1CC2(CCN(C(=O)c3cncc(C)c3)CC2)CO1 (centres undefined) |  |  |  | IC50 [5]: > 195 µM
O=C1CCCCN1c1ccc(S(=O)(=O)NC2CC2)cc1 | > 50.1 µM |  |  | 
NCc1cccc(-c2ccccn2)n1 | 12.4 µM | 109 µM | 97.6 µM | 
COc1cccc(N2CCNCC2C)c1 (centres undefined) | > 50.1 µM | > 501 µM | > 501 µM | 

SMILES | IC50 [1] | IC50 [2] | IC50 [3] | other results
O=C(CCNC(=O)c1ccccc1F)Nc1nccs1 | > 50.1 µM |  |  | 
C(Cc1noc(C2CNC2)n1)OCC1CC1 | 24.8 µM | 136 µM | 352 µM | 
Cc1ccc(C(=O)NCCN2CCOCC2)c(C)c1 | > 50.1 µM |  |  | 
Cn1cc(CN(C(=O)c2ccc(N)nc2)C2CC2)cn1 | > 50.1 µM |  |  | 
Nc1nnc(SCc2ccc(Cl)s2)[nH]1 | > 50.1 µM | 307 µM | 313 µM | 
NCCNC(=O)c1ccc(-c2ccc(Cl)cc2)s1 | > 25.1 µM | 67.3 µM | 103 µM | 
Brc1ccc(N2CCNCC2)nc1 | > 50.1 µM | 185 µM | > 501 µM | 
O=C(c1cc(C2CC2)n[nH]1)N1CCC2(CCCO2)CC1 | > 50.1 µM | > 501 µM | > 501 µM | 
CC(C)(N)CN1CCN(c2cccc(Cl)c2)CC1 | > 50.1 µM | 98.6 µM | 474 µM | 
OCCNCCNCc1ccc(-c2cccc(Cl)c2)o1 | > 25.1 µM | 84.4 µM | 253 µM | 
COc1ccc(CCN)c(OC)c1 | > 50.1 µM | 46.8 µM | 91.2 µM | 
CC(=O)Nc1ccc(CN2CCCOC(C)C2)cc1 (centres undefined) | > 50.1 µM |  |  | 
NCCc1ccc(-n2cccn2)cc1 | > 50.1 µM | 188 µM | 191 µM | 
Cn1nc2n(c1=O)CCN(Cc1ccc(Br)s1)CC2 | > 50.1 µM | 139 µM | > 501 µM | 
NCCC1CSc2ccccc2O1 (centres undefined) | > 50.1 µM | 129 µM | 170 µM | 
NC(=O)CCc1ccc(Cl)s1 | > 50.1 µM | > 501 µM | 160 µM | 
CCCS(=O)(=O)NCC(O)C1CCCC1 (centres undefined) | > 50.1 µM | 294 µM | 268 µM | 
CCOC(=O)C(O)c1cc(Br)c2c(c1)OCO2 (centres undefined) | > 50.1 µM | 223 µM | > 501 µM | 
Cc1cc(C)c(C#N)c(N2C[C@H](C3CC3)[C@@H](N)C2)n1 | > 50.1 µM | 247 µM | > 501 µM | 
CNC(=O)CCN1CC(Oc2ccc(C)cc2)C1 | > 50.1 µM |  |  | 
N[C@@H]1CC[C@H](C(=O)NCc2csc(N3CCCC3)n2)C1 | > 50.1 µM |  |  | 

SMILES | IC50 [1] | IC50 [2] | IC50 [3] | other results
Nc1nc(N)nc(CN2CCCC2c2cccs2)n1 (centres undefined) | > 50.1 µM | 171 µM | > 501 µM | 
CC1CCN(C(=O)CSc2nncs2)CC1 | > 50.1 µM | 22.7 µM | 23.8 µM | 
c1ccc(COCCc2noc(C3CNC3)n2)cc1 | 24.9 µM | 222 µM | 270 µM | 
C[C@@H]1CN(C(=O)c2cc(F)cc(C#N)c2)C[C@]1(C)O | > 50.1 µM |  |  | 
CCNS(=O)(=O)c1csc(C(=O)Nc2cc(C)on2)c1 | > 50.1 µM |  |  | 
CC(C)Sc1ccccc1NS(=O)(=O)N(C)C | > 50.1 µM | 173 µM | 252 µM | 
COC(=O)c1[nH]cc(-c2ccccc2)c1N | > 50.1 µM | 196 µM | 172 µM | 
Cc1cccc(OCCc2noc(C3CNC3)n2)c1 | 8.49 µM | 89.2 µM | 163 µM | 
NCCC(=O)N1CCCC(CCc2ccc(F)cc2)C1 (centres undefined) | > 50.1 µM | 204 µM | 479 µM | 
COc1ccc(S(=O)(=O)N(C)C)cc1NCC1CC1 | > 50.1 µM | 299 µM | > 501 µM | 
C1CCC(COCCc2noc(C3CNC3)n2)C1 | 19.5 µM | 96.5 µM | > 501 µM | 
CCC(C#N)NC(=O)c1cnc(OC(C)C)c(Cl)c1 (centres undefined) | > 50.1 µM | 131 µM | 291 µM | 
OCc1cc2ccccc2nc1N1CCSCC1 | > 50.1 µM | 238 µM | 282 µM | 
c1ccc(C2CNCCCO2)cc1 (centres undefined) | > 50.1 µM | 166 µM | 306 µM | 
CN(C)C(=O)Nc1cc(F)cc(F)c1 | 2.1 µM | 30.2 µM | 30.6 µM | 
COc1ncccc1-c1csc(NCCSC)n1 | > 50.1 µM | 101 µM | 284 µM | 
O=C(CN1CCC=C(F)C1)Nc1cccc(F)c1 | > 50.1 µM | 300 µM | 278 µM | 
Cc1ccc(F)cc1S(=O)(=O)N1C[C@H](C2CC2)[C@@H](N)C1 | > 50.1 µM | 259 µM | > 501 µM | 
COCCNc1nnc(SCc2ccc(Br)cn2)s1 | > 50.1 µM | 276 µM | > 501 µM | 
